Test results from US6759424B2, “Imidazolidine derivatives, their preparation, their use, and pharmaceutical preparations comprising them” (Aventis Pharma Deutschland GmbH, priority 1997, dated 2004).

biological target: T1, interaction between VCAM-1 and VLA-4 (Homo sapiens, UniProt P05556+P13612); experiment: U937/VCAM-1 cell adhesion test (adhesion of U937 cells to hVCAM-1(1-3)-IgG); format: cell-based; settings: human U937 cells adhering to hVCAM-1(1-3)-IgG; concentration giving 50% inhibition of adhesion
T1 construct: supplied in their natural form as surface molecules on human U937 cells; host or cells: U937 cells carry VLA-4; The VCAM-1(1-3)-IgG partner was made by transient transfection of COS cells (ATCC CRL1651) and used as culture supernatant
Source text: The test method used for the activity of the compounds of the formula I on the interaction between VCAM-1 and VLA-4 is an assay which is specific for this interaction. The cellular binding components, i.e., the VLA-4 integrins, are supplied in their natural form as surface molecules on human U937 cells (ATCC CRL 1593), which belong to the leucocytes group. The specific binding components used are genetically engineered recombinant soluble fusion proteins, consisting of the extracytoplasmatic domain of human VCAM-1 and the constant region of a human immunoglobulin of the subclass IgG1.
Assay for the Measurement of the Adhesion of U937 Cells (ATCC CRL 1593) to hVCAM-1 (1-3)-IgG
1. Preparation of Human VCAM-1(1-3)-IgG and Human CD4-IgG
A genetic construct for the expression of the extracellular domain of human VCAM-1, associated with the genetic sequence of the heavy chain of human immunoglobulin IgG1 (hinge, CH2 and CH3 regions), from Dr. Brian Seed, Massachusetts General Hospital, Boston, USA was employed (cf. Damle and Aruffo, Proc. Natl. Acad. Sci. USA 1991, 88, 6403-6407). The soluble fusion protein hVCAM-1(1-3)-IgG contained the three amino-terminal extracellular immunoglobulin-like domains of human VCAM-1 (Damle and Aruffo, Proc. Natl. Acad. Sci. USA 1991, 88, 6403). CD4-IgG (Zettlmeissl et al., DNA and Cell Biology 1990, 9, 347) served as a fusion protein for negative controls. The recombinant proteins were expressed as soluble proteins after DEAE/dextran-mediated DNA transfection in COS cells (ATCC CRL1651) according to standard procedures (Ausubel et al., Current Protocols in Molecular Biology, John Wiley & Sons, Inc., 1994).
2. Assay for the Measurement of the Adhesion of U937 Cells to hVCAM-1(1-3)-IgG
2.1 96-well microtiter test plates (Nunc Maxisorb) were incubated at room temperature for 1 hour with 100 μl/well of a goat-anti-human IgG antibody solution (10 μg/ml in 50 mM tris, pH 9.5). After removal of the antibody solution, washing was carried out once with PBS.
2.2 150 μl/well of a blocking buffer (1% BSA in PBS) was incubated on the plates at room temperature for 0.5 hour. After removal of the blocking buffer, washing was carried out once with PBS.
2.3 100 μl per well of a cell culture supernatant of transfected COS cells were incubated on the plates at room temperature for 1.5 hours. The COS cells were transfected with a plasmid which codes for the three N-terminal immunoglobulin-like domains of VCAM-1, coupled to the Fc part of human IgG, (hVCAM-1 (1-3)-IgG). The content of hVCAM-1 (1-3)-IgG was about 0.5-1 μg/ml. After removal of the culture supernatant washing was carried out once with PBS.
2.4 The plates were incubated at room temperature for 20 minutes with 100 μl/well of Fc receptor blocking buffer (1 mg/ml of γ-globulin, 100 mM NaCl, 100 μM MgCl2, 100 μM MnCl2, 100 μM CaCl2, 1 mg/ml of BSA in 50 mM HEPES, pH 7.5). After removal of the Fc receptor blocking buffer washing was carried out once with PBS.
2.5 20 μl of binding buffer (100 mM NaCl, 100 μM MgCl2, 100 μM MnCl2, 100 μM CaCl2, 1 mg/ml of BSA in 50 mM HEPES, pH 7.5) were initially introduced, and the substances to be tested were added in 10 μl of binding buffer and incubated for 20 minutes. The controls used were antibodies against VCAM-1 (BBT, No. BBA6) and against VLA-4 (Immunotech, No. 0764). […]

T1 sequence (P13612 34-1032): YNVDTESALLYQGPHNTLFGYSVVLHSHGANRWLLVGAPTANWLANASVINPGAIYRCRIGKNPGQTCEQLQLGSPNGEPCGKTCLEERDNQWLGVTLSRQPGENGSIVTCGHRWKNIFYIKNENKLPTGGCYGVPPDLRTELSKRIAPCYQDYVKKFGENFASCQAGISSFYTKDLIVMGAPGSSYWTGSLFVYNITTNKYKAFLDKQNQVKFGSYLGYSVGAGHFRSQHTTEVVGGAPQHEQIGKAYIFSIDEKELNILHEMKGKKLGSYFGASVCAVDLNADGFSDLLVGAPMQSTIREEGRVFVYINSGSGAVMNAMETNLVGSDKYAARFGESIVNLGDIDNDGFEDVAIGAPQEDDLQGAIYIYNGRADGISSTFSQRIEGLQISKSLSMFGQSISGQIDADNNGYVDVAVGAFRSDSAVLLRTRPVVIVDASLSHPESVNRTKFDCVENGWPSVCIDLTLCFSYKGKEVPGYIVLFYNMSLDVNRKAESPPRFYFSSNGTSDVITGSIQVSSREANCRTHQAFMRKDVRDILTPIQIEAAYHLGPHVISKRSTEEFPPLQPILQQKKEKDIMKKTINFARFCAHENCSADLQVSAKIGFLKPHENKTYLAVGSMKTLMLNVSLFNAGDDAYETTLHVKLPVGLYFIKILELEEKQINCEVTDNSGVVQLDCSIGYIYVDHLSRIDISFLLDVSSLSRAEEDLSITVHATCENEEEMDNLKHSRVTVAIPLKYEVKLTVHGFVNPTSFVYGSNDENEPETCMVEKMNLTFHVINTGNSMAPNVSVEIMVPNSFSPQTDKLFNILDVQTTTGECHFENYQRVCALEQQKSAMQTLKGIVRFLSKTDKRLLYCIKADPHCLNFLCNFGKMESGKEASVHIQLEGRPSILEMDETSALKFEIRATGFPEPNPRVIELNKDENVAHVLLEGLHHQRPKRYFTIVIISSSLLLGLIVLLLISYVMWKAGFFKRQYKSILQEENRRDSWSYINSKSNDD
T1 sequence (P05556 21-798): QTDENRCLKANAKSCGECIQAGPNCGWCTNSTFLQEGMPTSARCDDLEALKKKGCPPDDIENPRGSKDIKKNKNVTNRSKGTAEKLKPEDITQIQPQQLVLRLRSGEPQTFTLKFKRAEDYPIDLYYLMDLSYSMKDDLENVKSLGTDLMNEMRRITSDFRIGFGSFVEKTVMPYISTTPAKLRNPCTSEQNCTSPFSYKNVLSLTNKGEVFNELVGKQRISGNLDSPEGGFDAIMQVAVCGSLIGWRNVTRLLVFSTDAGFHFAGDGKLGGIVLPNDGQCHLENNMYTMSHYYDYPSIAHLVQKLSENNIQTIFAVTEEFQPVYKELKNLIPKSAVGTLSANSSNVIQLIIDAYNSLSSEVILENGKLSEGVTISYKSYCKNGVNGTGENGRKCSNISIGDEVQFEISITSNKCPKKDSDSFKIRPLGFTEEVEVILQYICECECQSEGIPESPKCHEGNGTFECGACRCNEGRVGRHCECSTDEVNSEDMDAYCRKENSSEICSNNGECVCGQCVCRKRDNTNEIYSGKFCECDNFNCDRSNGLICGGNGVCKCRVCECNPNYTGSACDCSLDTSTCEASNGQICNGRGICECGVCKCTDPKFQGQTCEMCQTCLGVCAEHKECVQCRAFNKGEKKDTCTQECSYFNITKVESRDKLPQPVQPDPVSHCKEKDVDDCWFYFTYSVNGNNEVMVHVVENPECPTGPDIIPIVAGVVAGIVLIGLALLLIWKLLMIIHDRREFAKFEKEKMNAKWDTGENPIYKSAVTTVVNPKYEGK

| IC50 | Structure (SMILES) |
| --- | --- |
| 4.5 µM | C[C@]1(c2ccc(CO)cc2)C(=O)N(CC(=O)N[C@@H](CC(=O)O)C(=O)N[C@H](C(=O)O)c2ccccc2)C(=O)N1Cc1ccccc1 [Example 8, ((S)-4-(4-Hydroxymethylphenyl)-3-benzyl-4-methyl-2,5-dioxoimidazolidin-1-yl)acetyl-L-aspartyl-L-phenylglycine] |
| 9.5 µM | CC1(c2ccc(O)cc2)C(=O)N(CC(=O)N[C@@H](CC(=O)O)C(=O)N[C@H](C(=O)O)c2ccccc2)C(=O)N1Cc1ccccc1 (stereo partly drawn) [Example 10, ((R,S)-4-(4-Hydroxyphenyl)-3-benzyl-4-methyl-2,5-dioxoimidazolidin-1-yl)acetyl-L-aspartyl-L-phenylglycine] |
| 8 µM | CC1(c2ccccc2)C(=O)N(CC(=O)N[C@@H](CC(=O)O)C(=O)N[C@H](C(=O)O)c2ccccc2)C(=O)N1Cc1ccccc1 (stereo partly drawn) [Example 7, ((R,S)-4-Phenyl-3-benzyl-4-methyl-2,5-dioxoimidazolidin-1-yl)acetyl-L-aspartyl-L-phenylglycine] |
| 4 µM | C[C@]1(c2ccc(CO)cc2)C(=O)N(CC(=O)NC[C@H](NC(=O)OCC23CC4CC(CC(C4)C2)C3)C(=O)O)C(=O)N1Cc1ccccc1 [Example 9, (S)-3-(((S)-4-(4-Hydroxymethylphenyl)-3-benzyl-4-methyl-2,5-dioxoimidazolidin-1-yl)acetylamino)-2-(1-adamantylmethyloxycarbonylamino)propionic acid] |
| 45 µM | CC(C)C(C(=O)NC[C@H](NC(=O)OCC12CC3CC(CC(C3)C1)C2)C(=O)O)N1C(=O)N(Cc2ccccc2)C(C)(c2ccccc2)C1=O (stereo partly drawn) [Example 4, (S)-3-((R,S)-2-((R,S)-4-Phenyl-3-benzyl-4-methyl-2,5-dioxoimidazolidin-1-yl)-2-isopropylacetylamino)-2-(1-adamantylmethyloxycarbonylamino)-propionic acid] |
